Numbers after ± are expanded uncertainties.
Assays:
[1] = Liquid
[2] = refractive index (Na D-line) (dimensionless); conditions: 293.1 K; 101.33 kPa; Liquid; Standard Abbe refractometry

## CC(C)COC(=O)C1CCCCC1C(=O)OCC(C)C (stereo unspecified) [diisobutyl hexahydrophthalate]
[1]; 434.4 K
  vapor or sublimation pressure: 0.732 ± 0.32 kPa
[1]; 448.2 K
  vapor or sublimation pressure: 1.539 ± 0.33 kPa
[1]; 463.3 K
  vapor or sublimation pressure: 2.912 ± 0.33 kPa
[1]; 478.7 K
  vapor or sublimation pressure: 4.813 ± 0.34 kPa
[1]; 486.4 K
  vapor or sublimation pressure: 6.342 ± 0.34 kPa
[1]; 491.5 K
  vapor or sublimation pressure: 7.672 ± 0.34 kPa
[1]; 500.3 K
  vapor or sublimation pressure: 10.2 ± 0.35 kPa
[1]; 506.6 K
  vapor or sublimation pressure: 12.5 ± 0.36 kPa
[1]; 509.6 K
  vapor or sublimation pressure: 13.99 ± 0.36 kPa
[1]; 515 K
  vapor or sublimation pressure: 16.31 ± 0.37 kPa
[1]; 519.5 K
  vapor or sublimation pressure: 18.67 ± 0.38 kPa
[1]; 524.1 K
  vapor or sublimation pressure: 21.3 ± 0.39 kPa
[1]; 527.8 K
  vapor or sublimation pressure: 23.69 ± 0.4 kPa
[1]; 534.8 K
  vapor or sublimation pressure: 28.61 ± 0.41 kPa
[1]; 538.2 K
  vapor or sublimation pressure: 30.94 ± 0.42 kPa
[2]
  refractive index: 1.453 ± 0.0007

— the NIST ThermoML archive (doi:10.1016/j.fluid.2005.03.019)
